Data from patent US8470829B2 (priority 2004, dated 2013).
Read-outs that look alike come from different tables or passages of the source.

Assays:
human androgen receptor [1] = target: T1, human androgen receptor (Homo sapiens, UniProt P10275); assay: Measurement of agonist effect on androgen receptor (reporter gene assay, 11A11B2 cells); assay type: cell-based; conditions: compound concentration showing a transcription activity of 5% (0.1 nmol/L DHT = 100%, assay medium alone = 0%), 48 hours
T1 construct: expressed in transfected cells
T1 sequence (P10275 1-920): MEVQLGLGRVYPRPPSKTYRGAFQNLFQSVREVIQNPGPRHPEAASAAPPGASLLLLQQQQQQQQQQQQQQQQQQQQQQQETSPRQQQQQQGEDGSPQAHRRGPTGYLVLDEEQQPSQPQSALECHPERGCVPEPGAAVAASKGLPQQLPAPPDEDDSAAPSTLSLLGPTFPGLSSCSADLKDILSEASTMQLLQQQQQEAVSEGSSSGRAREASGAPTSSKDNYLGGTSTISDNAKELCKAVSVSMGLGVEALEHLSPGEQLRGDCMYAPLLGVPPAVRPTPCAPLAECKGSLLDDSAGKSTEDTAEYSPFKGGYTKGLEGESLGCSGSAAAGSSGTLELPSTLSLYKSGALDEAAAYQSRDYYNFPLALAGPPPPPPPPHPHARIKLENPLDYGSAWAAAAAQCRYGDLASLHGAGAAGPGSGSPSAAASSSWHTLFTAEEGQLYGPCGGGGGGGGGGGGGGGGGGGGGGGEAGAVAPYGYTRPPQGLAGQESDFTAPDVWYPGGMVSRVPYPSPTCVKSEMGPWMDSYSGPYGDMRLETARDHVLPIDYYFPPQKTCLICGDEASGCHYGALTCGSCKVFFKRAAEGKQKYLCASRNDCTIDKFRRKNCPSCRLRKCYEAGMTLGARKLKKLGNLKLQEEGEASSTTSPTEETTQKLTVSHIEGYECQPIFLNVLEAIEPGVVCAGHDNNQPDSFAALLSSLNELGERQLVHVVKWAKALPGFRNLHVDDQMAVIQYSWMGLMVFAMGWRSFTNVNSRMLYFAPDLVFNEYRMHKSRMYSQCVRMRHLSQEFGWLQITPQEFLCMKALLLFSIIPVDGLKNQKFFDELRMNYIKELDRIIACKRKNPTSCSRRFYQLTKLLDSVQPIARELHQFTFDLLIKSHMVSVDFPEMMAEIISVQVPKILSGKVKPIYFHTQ
Method: (§1) HeLa cells (purchased from Dai-Nippon Seiyaku K. K.) were cultured overnight in Dulbecco's Modified Eagle Medium containing no phenol red, but containing 3% charcoal-treated fetal bovine serum (hereafter referred to as DCC-FBS) (this medium is hereafter referred to as phenol-red-free DMEM). An MMTV-Luc-Hyg vector (reporter plasmid with mouse mammary tumor virus long terminal repeat, containing an androgen response element and a hygromycin resistance gene: a vector obtained by substituting a chloramphenicol acetyl transferease gene of a GM-CAT vector (A.T.C.C No. 67282) purchased from the A.T.C.C. with the firefly luciferase gene, and inserting a hygromycin resistance gene as a drug resistant gene), and pSG5-hAR-neo (human androgen receptor expression vector: a vector having an androgen receptor gene under the control of the SV40 promoter, and having a neomycin resistance gene inserted as a drug resistance gene) were transfected into the HeLa cells using an FuGENE™ 6 Transfection Reagent (obtained from Roche).
(§2) The clone cells thus obtained (11A11B2 cells) were maintained and propagated using DMEM containing 400 μg/mL neomycin, 200 μg/mL hygromycin and 10% FBS, and were propagated using phenol-red-free DMEM containing 10% DCC-FBS three to four days prior to the performance of an androgen receptor reporter gene assay.
The 11A11B2 cells were inoculated in a white clear-bottomed 96-well microplate (COSTAR) so that the cell concentration was 1.0×10^4/well, and were cultured overnight using phenol-red-free DMEM containing 3% DCC-FBS (hereafter referred to as the assay medium). Samples of the assay medium containing the compounds of the Examples and compounds of the Comparative Examples were added so that the final concentrations of the compounds of the Examples and compounds of the Comparative Examples were 1, 10, 100, 1,000 and 10,000 nmol/L), and the cells were cultured for 48 hours, after which the transcription activity value was measured. The transcription activity was measured using a Bright-Glo™ Luciferase Assay System (Promega).
The transcription activity rates of the compounds of the Examples were calculated from the transcription activity measured by the abovementioned method, with the transcription activity value obtained at 0.1 nmol/L DHT taken as 100%, and the transcription activity value in the case of the assay medium alone taken as 0%. The compound concentration showing a transcription activity of 5% (EC5 value) was calculated from a linear equation for two points on either side of 5%.

human androgen receptor [2] = target: T1, human androgen receptor; assay: Investigation of antagonist effect on androgen receptor (reporter gene assay, 11A11B2 cells, with DHT); assay type: cell-based
Method: as §1, §2
The 11A11B2 cells were inoculated in a white clear-bottomed 96-well microplate (COSTAR) so that the cell concentration was 1.0×10^4/well, and were cultured overnight. The assay medium containing DHT was added so that the final concentration of DHT was 0.1 nmol/L, and samples of the assay medium containing the compounds of the Examples or compounds of the Comparative Examples were added so that the final concentrations of the compounds of the Examples or compounds of the Comparative Examples were 1, 10, 100, 1,000 and 10,000 nmol/L, respectively. After culturing for 48, hours, the transcription activity values were measured. The transcription activity was measured using a Bright-Glo™ Luciferase Assay System (Promega).
The transcription activity rates of the compounds of the Examples were calculated from the transcription activity measured by the abovementioned method, with the transcription activity value obtained at 0.1 nmol/L DHT taken as 100%, and the transcription activity value in the case of the assay, medium alone taken as 0%.

[3] = with 0.1 nmol/L DHT, transcription activity rate of Test Example 1 subtracted, 11A11B2 cells, 48 hours, read-out: IC50

Compound	EC5 (human androgen receptor [1])	IC50 (human androgen receptor [2])	IC50 (human androgen receptor [2]; [3])
CC1(C)C(=O)N(c2ccc(C#N)c(C(F)(F)F)c2)C(=S)N1c1ccc(Cl)c(NC(=N)N)c1 [Example 55, N-{2-chloro-5-[3-(4-cyano-3-trifluoromethylphenyl)-5,5-dimethyl-4-oxo-2-thioxoimidazolidin-1-yl]phenyl}guanidine]	>10 µM	700 nM	–
CC1(C)C(=O)N(c2ccc(C#N)c(Cl)c2)C(=S)N1c1ccc2sc(NC(N)=O)nc2c1 [Example 20, {5-[3-(4-cyano-3-chlorophenyl)-5,5-dimethyl-4-oxo-2-thioxoimidazolidin-1-yl]-benzothiazol-2-yl}urea]	>10 µM	100 nM	–
CC1(C)C(=O)N(c2ccc(C#N)c(C(F)(F)F)c2)C(=O)N1c1ccc(NC(=O)CN2CCNCC2)c(Cl)c1 [Example 21, N-{2-chloro-4-[3-(4-cyano-3-trifluoromethylphenyl)-5,5-dimethyl-2,4-dioxoimidazolidin-1-yl]-phenyl}-2-piperazin-1-ylacetamide]	>10 µM	–	500 nM
CC1(C)C(=O)N(c2ccc(C#N)c(Cl)c2)C(=S)N1c1cccc(S(N)(=O)=O)c1 [Example 68, 3-[3-(3-chloro-4-cyanophenyl)-5,5-dimethyl-4-oxo-2-thioxoimidazolidin-1-yl]benzenesulfonamide]	>10 µM	–	400 nM
CCC(=O)N1CCC(N2C(=S)N(c3ccc(C#N)c(Cl)c3)C(=O)C2(C)C)CC1 [Example 7, 4-[3-(1-propionylpiperidin-4-yl)-4,4-dimethyl-5-oxo-2-thioxoimidazolidin-1-yl]-2-chlorobenzonitrile]	>10 µM	300 nM	–
CC(=O)Nc1cc(N2C(=S)N(c3ccc(C#N)c(C(F)(F)F)c3)C(=O)C2(C)C)ccc1Cl [Example 22, 4-[3-(3-acetylamino-4-chlorophenyl)-4,4-dimethyl-5-oxo-2-thioxoimidazolidin-1-yl]-2-trifluoromethylbenzonitrile]	>10 µM	–	200 nM
COc1cc(N2C(=O)C(C)(C)N(c3ccc(Cl)c(NC(=O)OCCN(C)C)c3)C2=S)ccc1C#N [Example 54, {2-chloro-5-[3-(4-cyano-3-methoxyphenyl)-5,5-dimethyl-4-oxo-2-thioxoimidazolidin-1-yl]phenyl}-carbamic acid 2-dimethylaminoethyl ester]	>10 µM	–	500 nM
CC1(C)C(=O)N(c2ccc(C#N)c(C(F)(F)F)c2)C(=S)N1c1ccc(Cl)c(NC(=O)OCCO)c1 [Example 46, {2-chloro-5-[3-(4-cyano-3-trifluoromethylphenyl)-5,5-dimethyl-4-oxo-2-thioxoimidazolidin-1-yl]phenyl}-carbamic acid 2-hydroxyethyl ester]	>10 µM	300 nM	–
CCCS(=O)(=O)N1CCC(N2C(=S)N(c3ccc(C#N)c(Cl)c3)C(=O)C2(C)C)CC1 [Example 8, 4-[3-(1-propanesulfonylpiperidin-4-yl)-4,4-dimethyl-5-oxo-2-thioxoimidazolidin-1-yl]-2-chlorobenzonitrile]	>10 µM	300 nM	–
CC(=O)N1CCC(N2C(=S)N(c3ccc(C#N)c(C(F)(F)F)c3)C(=O)C2(C)C)CC1 [Example 4, 4-[3-(1-acetylpiperidin-4-yl)-4,4-dimethyl-5-oxo-2-thioxoimidazolidin-1-yl]-2-trifluoromethylbenzonitrile]	>10 µM	–	300 nM
CCCOC(=O)Nc1cc(N2C(=O)N(c3ccc(C#N)c(OC)c3)C(=O)C2(C)C)ccc1Cl [Example 26, 4-[3-(3-n-propoxycarbonylamino-4-chlorophenyl)-4,4-dimethyl-2,5-dioxoimidazolidin-1-yl]-2-methoxybenzonitrile]	>10 µM	–	200 nM
CC(=O)Nc1nc2cc(N3C(=S)N(c4ccc(C#N)c(Cl)c4)C(=O)C3(C)C)ccc2s1 [Example 16, 4-[3-(2-acetylaminobenzothiazol-5-yl)-4,4-dimethyl-5-oxo-2-thioxoimidazolidin-1-yl]-2-chlorobenzonitrile]	3 µM	40 nM	–
CCS(=O)(=O)N1CCC(N2C(=S)N(c3ccc(C#N)c(Cl)c3)C(=O)C2(C)C)CC1 [Example 9, 4-[3-(1-ethanesulfonylpiperidin-4-yl)-4,4-dimethyl-5-oxo-2-thioxoimidazolidin-1-yl]-2-chlorobenzonitrile]	>10 µM	300 nM	–
CC1(C)C(=O)N(c2ccc(C#N)c(Cl)c2)C(=S)N1c1ccc2sc(NC(=O)NCCO)nc2c1 [Example 63, 1-{5-[3-(3-chloro-4-cyanophenyl)-5,5-dimethyl-4-oxo-2-thioxoimidazolidin-1-yl]benzothiazol-2-yl}-3-(2-hydroxyethyl)urea]	>10 µM	300 nM	–
CN(C)CCOC(=O)Nc1cc(N2C(=O)N(c3ccc(C#N)c(Cl)c3)C(=O)C2(C)C)ccc1Cl [Example 31, {2-chloro-5-[3-(4-cyano-3-chlorophenyl)-5,5-dimethyl-2,4-dioxoimidazolidin-1-yl]phenyl}-carbamic acid 2-dimethylaminoethyl ester]	>10 µM	600 nM	–
COc1cc(N2C(=O)N(c3ccc(Cl)c(NC(=O)OC(C)C)c3)C(C)(C)C2=O)ccc1C#N [Example 25, 4-[3-(3-isopropoxycarbonylamino-4-chlorophenyl)-4,4-dimethyl-2,5-dioxoimidazolidin-1-yl]-2-methoxybenzonitrile]	>10 µM	–	400 nM
CCCNC(=O)N1CCC(N2C(=S)N(c3ccc(C#N)c(Cl)c3)C(=O)C2(C)C)CC1 [Example 41, 4-[3-(1-n-propylaminocarbonylpiperidin-4-yl)-4,4-dimethyl-5-oxo-2-thioxoimidazolidin-1-yl]-2-chlorobenzonitrile]	>10 µM	500 nM	–
CN(C)CCOC(=O)Nc1cc(N2C(=S)N(c3ccc(C#N)c(C(F)(F)F)c3)C(=O)C2(C)C)ccc1Cl [Example 52, {2-chloro-5-[3-(4-cyano-3-trifluoromethylphenyl)-5,5-dimethyl-4-oxo-2-thioxoimidazolidin-1-yl]phenyl}-carbamic acid 2-dimethylaminoethyl ester]	>10 µM	300 nM	–
